Where “and” joins values, the source holds several entries; their conditions need not be identical. Equal entries are not always repeated.

Assay [1] relates to fowl roundworm (Ascaridia galli). Nature of the assay: Anthelmintic test in chickens artificially infected with fowl roundworm, single oral dose in gelatin capsule, worm bodies counted within 48 hours (Test Examples A1, B1, C1, D1). Type of assay: in vivo. To be noted: Ascaridia galli, po, 48 h, chicken, chickens No.1-3, read-out: Anthelmintic effect after 48 hours; for inhibition in vivo at 30 mg/kg: 30 mg/Kg oral in gelatin capsule; for inhibition in vivo at 15 mg/kg: 15 mg/Kg oral in gelatin capsule. As for the experimental part:
Chickens infected artificially with fowl roundworm (Ascaridia galli) were employed in groups each consisting of three chickens. Fecal matter testing was conducted before administration of medicine to confirm infection with the worm. The quantity of the compound provided for testing was 10 mg and 20 mg per Kg of body weight, which was orally administered each in a gelatin capsule to the chicken. The number of worm bodies discharged within 48 hours after administration of medicine was counted, the chicken was killed after 48 hours and the number of worm bodies remaining in the enteron was counted to determine the anthelmintic percentage, wherefrom the antihelmintic effect was judged.
The same as that in Test Example Al.
The same as that in Test Example Al except that the compound provided for testing was in quantities of 30 mg and 50 mg per Kg of body weight, which were orally administered to the chickens in gelatin capsules.
The same as that in Test Example Al, except that the compounds provided for testing were used in quantities of 15 mg and 30 mg per Kg of body weight, which were orally administered each in a gelatin capsule to the chicken.

Assay [2] has as its system fowl roundworm (As. galli). As to the kind of experiment: Anthelmintic test in chickens artificially infected with fowl roundworm, compound added to feed, E.P.G. and worm count up to 21st day (Test Examples A2, B2, C2, D2). It counts as in vivo, Ascaridia galli. To be noted: chicken; for inhibition in vivo at 25 ppm / inhibition in vivo at 50 ppm: Ascaridia galli, feed or water, 504 h, read-out: Anthelmintic effect.

Assay [3] has as its system Diphyllobothrium erinacei. As to the kind of experiment: Test of anthelmintic effect against Diphyllobothrium erinacei (tapeworm) in experimentally infected cats (Test Examples A5, B5, C5, D5). To be noted: for anthelmintic effect: cats, 5 continuous administrations of 50 mg/Kg.
Assay [4] has as its system swine Oesophagostomum (Oesophagostomum dentatum). As to the kind of experiment: Test of anthelmintic effect against swine Oesophagostomum in naturally infected pigs, E.P.G. on 7th day (Test Examples A8, B8, C8, D8). It counts as in vivo. As to conditions: for Change of E.P.G. 7th day / Change of E.P.G. Before administration: pig, Oesophagostomum dentatum; for Change of E.P.G. 7th day: 20 mg/Kg, one administration; for Change of E.P.G. Before administration: before 20 mg/Kg (baseline); for anthelmintic effect: pigs, one administration of 20 mg/Kg. As for the experimental part: Six pigs infected with swine Oesophagostomum (naturally infected pigs) were employed by grouping them into groups each of two pigs.
As a control, only gelatin capsules were administered orally to the two pigs.
Before administration and on the 7th day after administration, fecal matter testing was conducted to calculate the E.P.G., and the anthelmintic effect was judged by the changing of the E.P.G. to negative.

Assay [5] concerns Liver fluke; Fasciola hepatica (F. hepatica). Nature of the assay: Test of anthelmintic effect against rat infected experimentally with liver fluke (Test Examples A11, B11, C11, D11). Type of assay: in vivo. An excerpt:
Twenty-eight (28) rats were employed in fourteen groups each of two rats, each rat being infected with 5 metacercariae of Liver fluke; Fasciola he^patica (F.. hepatica) and confirmed to have worm eggs on the 75th day after infection according to fecal matter testing.
Judgement of the effect was made by the presence or absence of the worm gees in the fecal matter on the 21st day after the last administration and by examination according to autopsis as to whether the worm bodies were dead or alive in the liver.
The same as that in Test Example All, but eight (8) rats were employed by grouping them into groups each of two rats, each rat being infected with 5 metacercariae of liver fluke and confirmed to have fluke eggs on the 75th day after infection according to fecal matter testing.
The compounds provided for the tests were Compound Nos. Bl, B8 and B19.
The same as that in Test Example All, but six (6) rats were employed by grouping them into groups each of two rats, each rat being infected with 5 metacercariae of Fasciola hepatica and confirmed to have worm eggs on the 75th day after infection according to fecal matter testing.
The compounds provided for the tests were Compound Nos. C2 and C6.
The same as that in Test Example All, but the compounds provided for tests were Compound Nos. D14, D15 and D16.

On to `C=CCON(CC=C)C(=O)c1ccc(F)cc1` [Compound C7], for which the inhibition in vivo at 30 mg/kg in assay [1] came out at 100%. The inhibition in vivo at 50 mg/kg in assay [1] (50 mg/Kg oral in gelatin capsule) amounted to 100%. For the same compound, in assay [2] (25 ppm in feed), the inhibition in vivo at 25 ppm came to 100% and the “Change of E.P.G. 21st day” value stood at 0. In addition, in assay [2] (50 ppm in feed), the inhibition in vivo at 50 ppm was 100% and the “Change of E.P.G. 21st day” value came to 0. The “Number of worm bodies remaining in enteron” value in assay [3] (cat, 50 mg/Kg x 5, oral in gelatin capsule) is reported as 0. In assay [3] (cat, 50 mg/Kg x 5, oral in gelatin capsule, once per day for 5 days), the “Worm egg detection on 10th day after administration” value was “-”. Besides, the “anthelmintic effect” value in assay [3] is recorded as “marked anthelmintic effects”.
As to `C=CCNOCC(C)C` [Compound D3], in assay [1], the inhibition in vivo at 30 mg/kg was 100%. Besides, the inhibition in vivo at 25 ppm in assay [2] (25 ppm in feed) fell in the range of 80 to 90%. Also, in assay [2] (50 ppm in feed), the inhibition in vivo at 50 ppm is 100%. Also, in assay [4], the “Change of E.P.G. 7th day” value was 0; the “Change of E.P.G. Before administration” value was 2,200 and 1,800; the “anthelmintic effect” value was “marked anthelmintic effect”.
Turning to `C=CCNOC` [Compound D9], in assay [1], the inhibition in vivo at 15 mg/kg lay in the range of 50 to 79% and the inhibition in vivo at 30 mg/kg is 100%. Moreover, the “Number of worms remaining in enteron” value in assay [3] (cat, 50 mg/Kg x 5) came out at 0. Further, in assay [3], the “anthelmintic effect” value is on record as “marked anthelmintic effects”.
For `C#CCNOCCCC` [Compound D12], the inhibition in vivo at 30 mg/kg in assay [1] was 100%. In addition, in assay [4], the “Change of E.P.G. 7th day” value worked out at 0; the “Change of E.P.G. Before administration” value is 1,600 and 2,100; the “anthelmintic effect” value is listed as “marked anthelmintic effect”.
Consider `C#CCNOCC#C` [Compound D15], for which, in assay [1], the inhibition in vivo at 15 mg/kg came to 100% and the inhibition in vivo at 30 mg/kg amounted to 100%. In addition, the inhibition in vivo at 25 ppm in assay [2] (25 ppm in feed) fell in the range of 80 to 90%. For the same compound, the inhibition in vivo at 50 ppm in assay [2] (50 ppm in feed) amounted to 100%. Further, in assay [5] (rat, 50 mg/Kg x 5), the “Condition of fluke bodies” value is reported as “dead” and the “Presence or absence of fluke egg in fecal matter On 21st day after the last administration” value was “-”. Further, the “anthelmintic effect” value in assay [5] (rats, five administrations in a dose of 50 mg/Kg each) was “marked anthelmintic effect”.

For the origin of these results see patent EP0103895A2, “Novel hydroxylamine derivatives, production and use thereof” (MEIJI SEIKA KABUSHIKI KAISHA, priority 1982, dated 1984).
